Several values for one entry are separate records, joined by “and”; a condition that tells them apart may be missing. Identical values can stand only once.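 All cell lines were grown in 96-well plates and treated with compound for 48 hours. GI50 is the concentration that inhibits growth by half. TGI: concentration producing complete growth inhibition.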

Common to all, as to assay: NCI tumour cell line growth inhibition, 48 h
The test system of test [1] is HT29 colon.
Test [2] relates to UACC-62 melanoma.
The test system of test [3] is HOP-92 NSCLC.
The test system of test [4] is A498 renal.
The subject of test [5] is NCI-H522 lung.
Test [6] concerns ACHN renal.
Test [7] has as its system NCI-H460 lung.
Test [8] concerns U251 CNS.
In test [9] the test system is HL-60(TB) leukemia.
In test [10] the test system is DU-145 prostate.

`Cc1cc2c(C(=O)NC[C@H](C)c3ccccc3)c(O)c(O)cc2c(O)c1-c1c(C)cc2c(C(=O)NC[C@H](C)c3ccccc3)c(O)c(O)cc2c1O`: the GI50 in [1] is 0.355 µM; in [2], 0.146 µM; in test [3], 0.276 µM; in test [4], 0.316 µM; in [5], 0.288 µM; in [6], 0.296 µM. Besides, the GI50 is 0.0334 µM in [7], 0.074 µM in [8], 0.901 µM in test [9] and 0.3 µM in test [10]. Further, the TGI in test [1] worked out at 11 µM; in [2], 0.486 µM; in test [3] it was 1 µM; in test [4], 7.54 µM; in test [5], 1.18 µM; in test [6], 3.83 µM. Besides, the TGI in [7] was determined as 0.388 µM; in [8], 1.67 µM; in test [9], 8.57 µM; in [10], 14.3 µM.
`O=C(O)c1cc(-c2ccc3cc4c(cc3c2)OCO4)nc2ccccc12`: the TGI was more than 100 µM in test [1]; more than 100 µM in test [2]; 87.9 µM in [3]; 75.1 µM in test [4]; more than 100 µM in test [5]; more than 100 µM in test [6]. Besides, the TGI in [7] is 42.7 µM; in [8], more than 100 µM; in [9], more than 100 µM; in test [10], more than 100 µM.
As for `O=C1NC(=C(Cl)Cl)/C(=N/S(=O)(=O)N2CCCCC2)N1`, the GI50 is 1.99 µM in test [1]; 1.61 µM in test [2]; 1.75 µM in test [3]; 12.4 µM in test [4]; 1.59 µM in test [5]; 1.96 µM in test [6]. The GI50 is 3.27 µM in test [7], 1.71 µM in test [8], 1.86 µM in [9] and 3.54 µM in [10]. In addition, the TGI in [1] was found to be 3.98 µM; in test [2] it was 3.04 µM; in test [3], 3.33 µM; in test [4] it was 25.4 µM; in [5], 3.39 µM; in test [6] it was 3.42 µM. Besides, the TGI amounted to 11.2 µM in test [7], 3.12 µM in test [8], 4.52 µM in test [9] and 12.2 µM in test [10].
As for `COc1ccccc1Nc1cc(O)c2c(=O)cc(-c3ccccc3)oc2c1`, the GI50 was 3.64 µM in test [1]; 2.39 µM in test [2]; 3.76 µM in test [3]; 3.08 µM in [4]; 2.67 µM in [5]; 3.38 µM in test [6]. The GI50 in [7] is 3.37 µM; in test [8], 3.63 µM; in test [9], 2.79 µM; in test [10], 4.35 µM. In addition, the TGI in test [1] is more than 100 µM; in test [2], 12.8 µM; in test [3], 23.7 µM; in test [4], 13.9 µM; in test [5], 27.1 µM; in test [6], 13 µM. Further, the TGI in test [7] was 12 µM; in test [8] it was more than 100 µM; in [9], 34.9 µM; in test [10], 16.4 µM.
For the compound `COc1ccc2ncn(-c3cc(O[C@H](C)c4ccccc4C(F)(F)F)c(C(N)=O)s3)c2c1`, the GI50 in test [1] was 0.0839 µM; in [2], 0.142 µM; in test [3] it was 0.143 µM; in test [4], 0.0764 µM; in test [5] it was 0.0995 µM; in [6], 3.17 µM. Further, the GI50 in [7] is 0.088 µM; in [8], 0.166 µM; in [9], 0.0905 µM; in test [10], 0.0784 µM. Besides, the TGI in [1] was 3.21 µM; in [2], 4.58 µM; in [3], 6.44 µM; in test [4], 0.597 µM; in [5], 2.51 µM; in test [6] it was 25 µM. Further, the TGI in [7] worked out at 2.99 µM; in test [8] it was 6.24 µM; in test [9], 1.01 µM; in [10], 0.242 µM.
Consider `CC(C)C[C@H](NC(=O)CNC(=O)c1cc(Cl)ccc1Cl)B(O)O`, for which the GI50 is less than 0.0155 µM in [1]; less than 0.0175 µM in test [2]; 0.0231 µM in [3]; less than 0.0158 µM in test [4]; 0.0164 µM in test [5]; less than 0.0182 µM in test [6]. Moreover, the GI50 in test [7] is 0.0831 µM; in test [8] it was 0.0504 µM; in [9], less than 0.0167 µM; in [10], less than 0.0262 µM. Further, the TGI in test [1] stood at 0.0616 µM; in test [2], 0.0457 µM; in [3] it was 0.165 µM; in test [4], 0.0336 µM; in test [5], 0.0414 µM; in test [6], 15.8 µM. The TGI in test [7] is 0.919 µM; in test [8], 2.81 µM; in test [9] it was 0.212 µM; in [10], 15.3 µM.
As to `O=C1N[C@@H]2[C@@H](O)[C@@H](O)[C@H](O)C[C@H]2c2cc3c(c(O)c21)OCCO3`, the GI50 in [1] was 0.315 µM; in test [2] it was 0.272 µM; in test [3] it was 0.116 µM; in [4] it was 0.392 µM; in [5] it was 0.199 µM; in test [6] it was 0.306 µM. For the same compound, the GI50 in test [7] was 0.157 µM; in test [8], 0.238 µM; in test [9], 0.19 µM; in test [10], 0.229 µM. Besides, the TGI was 2.08 µM in [1]; 1.38 µM in [2]; 0.892 µM in test [3]; 1.58 µM in [4]; 0.993 µM in [5]; 1.46 µM in [6]. Further, the TGI was found to be 1.13 µM in test [7], 8.42 µM in test [8], 0.599 µM in test [9] and 0.84 µM in test [10].
In the case of `CC(C)(C)C(=O)OCOP(=O)(NCc1ccccc1)C1CCCN(O)C1=O` (stereo unspecified), the GI50 in test [1] is 3.35 µM; in test [2] it was 2.22 µM; in test [3], 1.06 µM; in [4] it was 0.692 µM; in test [5], 1.78 µM; in test [6], 2.5 µM. Besides, the GI50 was 1.75 µM in test [7], 2.45 µM in test [8], 3.59 µM in test [9] and 4.03 µM in test [10]. Besides, the TGI in test [1] turned out to be 61.9 µM; in test [2] it was 6.49 µM; in test [3] it was 7.72 µM; in test [4], 9.18 µM; in [5], 21.9 µM; in test [6], 67.4 µM. Moreover, the TGI in test [7] was 15.5 µM; in test [8] it was more than 100 µM; in test [9], 13.7 µM; in [10], more than 100 µM.
With `COc1ccc2c(c1)C(=O)c1c-2n(CCCN(C)C)c(=O)c2ccccc12`, the GI50 is 0.275 µM in [1]; 0.922 µM in [2]; 0.886 µM in test [3]; 0.377 µM in test [4]; 0.188 µM in [5]; 0.116 µM in test [6]. Moreover, the GI50 in [7] is 0.0517 µM; in test [8], 0.197 µM; in [9] it was 0.321 µM; in test [10] it was 0.249 µM. In addition, the TGI came out at 10.9 µM in test [1]; 2.5 µM in test [2]; 4.57 µM in test [3]; 1.72 µM in [4]; 4.04 µM in test [5]; 0.503 µM in test [6]. The TGI amounted to 0.454 µM in test [7], 3.68 µM in test [8], 2.64 µM in test [9] and 2.82 µM in test [10].
Consider `COC(=O)[C@@H]1c2cc3c(c(O)c2[C@@H](OC2OC(C)C(OC)C(C)(OC)C2OC)C[C@]1(C)O)C(=O)c1c(O)cc2c(c1C3=O)O[C@H]1O[C@]2(C)[C@H](O)[C@@H](N(C)C)[C@@H]1O` (stereo partly specified), for which the TGI in [1] was 10.1 µM; in [2] it was 0.0206 µM and 0.0277 µM; in [3], 0.0546 µM and 0.418 µM; in test [4] it was 0.0162 µM; in test [5], 0.0638 µM and 0.0131 µM; in test [6], 0.951 µM and 5.37 µM. Further, the TGI in [7] was 0.0336 µM; in test [8] it was 0.443 µM and 0.236 µM; in [9] it was 0.107 µM; in test [10] it was 0.455 µM. Also, the GI50 in [6] is 0.0114 µM.
Regarding `Oc1c(Cl)cc(Cl)c(Cl)c1CNCCNCc1c(O)c(Cl)cc(Cl)c1Cl`, the GI50 is 5.83 µM in test [1]; 0.917 µM in [2]; 1.66 µM in test [3]; 3.03 µM in test [4]; 1.28 µM in test [5]; 0.549 µM in test [6]. Further, the GI50 was 0.44 µM in test [7], 0.556 µM in test [8], 0.63 µM in test [9] and 2.09 µM in [10]. Besides, the TGI in test [1] was more than 50 µM; in [2], 5.45 µM; in [3] it was 10.3 µM; in test [4] it was 17.3 µM; in [5] it was 8.24 µM; in test [6], 7.22 µM. The TGI in [7] was found to be 7.52 µM; in test [8], 6.61 µM; in test [9] it was 2.84 µM; in test [10] it was 12.6 µM.
Turning to `Fc1ccc(-c2c(-c3ccncc3)nc3n2CCS3)cc1`, the GI50 is more than 25 µM in test [1]; more than 25 µM in test [2]; more than 16.9 µM in test [3]; more than 15.6 µM in [4]; more than 25 µM in test [5]; more than 25 µM in test [6]. The GI50 in test [7], in test [8], in test [9] and in test [10] was more than 25 µM in each case. For the same compound, the TGI in [1], in test [2], in test [3], in [4], in test [5] and in test [6] was more than 25 µM throughout. Also, the TGI in [7], in test [8], in [9] and in test [10] was more than 25 µM each time.
On to `CNC(=O)c1ccc(N2C(=S)N(c3cnc(C#N)c(C(F)(F)F)c3)C(=O)C23CCC3)cc1F`, for which the GI50 in test [1] was more than 100 µM; in test [2], more than 70.5 µM; in test [3] it was more than 86.7 µM; in test [4], more than 53.2 µM; in test [5], more than 100 µM; in test [6] it was more than 100 µM. Moreover, the GI50 in [7] was more than 100 µM; in test [8], more than 100 µM; in [9], 63.9 µM; in [10], more than 100 µM. The TGI in test [1], in test [2], in test [3], in [4], in test [5] and in [6] was more than 100 µM throughout. The TGI in [7], in test [8], in test [9] and in test [10] was more than 100 µM each time.
Take `CCOC(=O)Cc1c(C)c2cc(C(=O)c3ccccc3)c(O)cc2oc1=O`: the TGI is more than 100 µM in test [1]; more than 100 µM in test [2]; 58.8 µM in test [3]; 80.2 µM in test [4]; 68.7 µM in test [5]; more than 100 µM in test [6]. Moreover, the TGI in test [7] is more than 100 µM; in test [8], 74.2 µM; in test [9], 53.8 µM; in test [10], more than 100 µM.
As to `O=c1oc2ccc(I)cc2c(=O)n1-c1ccc(Br)cc1F`, the GI50 in test [1] was 3.3 µM; in [2], 0.31 µM; in test [3], 0.207 µM; in test [4], 0.225 µM; in test [5], 0.396 µM; in [6], 0.751 µM. In addition, the GI50 in test [7] was 0.5 µM; in test [8] it was 0.75 µM; in test [9], 0.588 µM; in test [10] it was 1.04 µM. In addition, the TGI came out at 13.5 µM in test [1]; 1.17 µM in [2]; 0.634 µM in test [3]; 0.697 µM in [4]; 4.85 µM in [5]; 10.7 µM in test [6]. In addition, the TGI in test [7] is 10.6 µM; in test [8], more than 37.5 µM; in test [9] it was 3.74 µM; in [10], 28.8 µM.

The values are drawn from PubChem BioAssay (NCI).
